Source: the NIST ThermoML archive (doi:10.1016/j.tca.2012.10.004)
Numbers after ± are expanded uncertainties.

Test: refractive index (Na D-line) (dimensionless); xn = mol fraction of the nth substance listed
Conditions: 101 kPa, Liquid, Standard Abbe refractometry

CN(CCO)CCO [N-methyldiethanolamine] + O=S1(=O)CCCC1
refractive index (293.15 K, x1 = 0.1001): 1.48265 ± 0.00037
refractive index (293.15 K, x1 = 0.2012): 1.48037 ± 0.00037
refractive index (293.15 K, x1 = 0.2999): 1.47845 ± 0.00037
refractive index (293.15 K, x1 = 0.4003): 1.4766 ± 0.00037
refractive index (293.15 K, x1 = 0.5005): 1.47489 ± 0.00037
refractive index (293.15 K, x1 = 0.6): 1.47343 ± 0.00037
refractive index (293.15 K, x1 = 0.7002): 1.47207 ± 0.00037
refractive index (293.15 K, x1 = 0.8011): 1.47093 ± 0.00037
refractive index (293.15 K, x1 = 0.8998): 1.47017 ± 0.00037
refractive index (293.15 K, x1 = 1): 1.46935 ± 0.00037
refractive index (298.15 K, x1 = 0.1001): 1.48095 ± 0.00037
refractive index (298.15 K, x1 = 0.2012): 1.47872 ± 0.00037
refractive index (298.15 K, x1 = 0.2999): 1.47672 ± 0.00037
refractive index (298.15 K, x1 = 0.4003): 1.47488 ± 0.00037
refractive index (298.15 K, x1 = 0.5005): 1.47316 ± 0.00037
refractive index (298.15 K, x1 = 0.6): 1.47164 ± 0.00037
refractive index (298.15 K, x1 = 0.7002): 1.47023 ± 0.00037
refractive index (298.15 K, x1 = 0.8011): 1.469 ± 0.00037
refractive index (298.15 K, x1 = 0.8998): 1.46802 ± 0.00037
refractive index (298.15 K, x1 = 1): 1.46724 ± 0.00037
refractive index (303.15 K, x1 = 0.1001): 1.47886 ± 0.00037
refractive index (303.15 K, x1 = 0.2012): 1.4767 ± 0.00037
refractive index (303.15 K, x1 = 0.2999): 1.47473 ± 0.00037
refractive index (303.15 K, x1 = 0.4003): 1.47288 ± 0.00037
refractive index (303.15 K, x1 = 0.5005): 1.47124 ± 0.00037
refractive index (303.15 K, x1 = 0.6): 1.46976 ± 0.00037
refractive index (303.15 K, x1 = 0.7002): 1.46844 ± 0.00037
refractive index (303.15 K, x1 = 0.8011): 1.46717 ± 0.00037
refractive index (303.15 K, x1 = 0.8998): 1.46615 ± 0.00037
refractive index (303.15 K, x1 = 1): 1.46532 ± 0.00037
refractive index (308.15 K, x1 = 0.1001): 1.47712 ± 0.00037
refractive index (308.15 K, x1 = 0.2012): 1.47488 ± 0.00037
refractive index (308.15 K, x1 = 0.2999): 1.47281 ± 0.00037
refractive index (308.15 K, x1 = 0.4003): 1.47099 ± 0.00037
refractive index (308.15 K, x1 = 0.5005): 1.46931 ± 0.00037
refractive index (308.15 K, x1 = 0.6): 1.46777 ± 0.00037
refractive index (308.15 K, x1 = 0.7002): 1.46639 ± 0.00037
refractive index (308.15 K, x1 = 0.8011): 1.46513 ± 0.00037
refractive index (308.15 K, x1 = 0.8998): 1.46413 ± 0.00037
refractive index (308.15 K, x1 = 1): 1.4631 ± 0.00037
refractive index (313.15 K, x1 = 0.1001): 1.47549 ± 0.00037
refractive index (313.15 K, x1 = 0.2012): 1.47327 ± 0.00037
refractive index (313.15 K, x1 = 0.2999): 1.47109 ± 0.00037
refractive index (313.15 K, x1 = 0.4003): 1.46919 ± 0.00037
refractive index (313.15 K, x1 = 0.5005): 1.46741 ± 0.00037
refractive index (313.15 K, x1 = 0.6): 1.46584 ± 0.00037
refractive index (313.15 K, x1 = 0.7002): 1.46442 ± 0.00037
refractive index (313.15 K, x1 = 0.8011): 1.46301 ± 0.00037
refractive index (313.15 K, x1 = 0.8998): 1.46184 ± 0.00037
refractive index (313.15 K, x1 = 1): 1.46074 ± 0.00037
refractive index (318.15 K, x1 = 0.1001): 1.47376 ± 0.00037
refractive index (318.15 K, x1 = 0.2012): 1.47154 ± 0.00037
refractive index (318.15 K, x1 = 0.2999): 1.46941 ± 0.00037
refractive index (318.15 K, x1 = 0.4003): 1.46751 ± 0.00037
refractive index (318.15 K, x1 = 0.5005): 1.46573 ± 0.00037
refractive index (318.15 K, x1 = 0.6): 1.46414 ± 0.00037
refractive index (318.15 K, x1 = 0.7002): 1.46267 ± 0.00037
refractive index (318.15 K, x1 = 0.8011): 1.46127 ± 0.00037
refractive index (318.15 K, x1 = 0.8998): 1.46005 ± 0.00037
refractive index (318.15 K, x1 = 1): 1.45892 ± 0.00037
refractive index (323.15 K, x1 = 0.1001): 1.47203 ± 0.00037
refractive index (323.15 K, x1 = 0.2012): 1.46976 ± 0.00037
refractive index (323.15 K, x1 = 0.2999): 1.46769 ± 0.00037
refractive index (323.15 K, x1 = 0.4003): 1.46581 ± 0.00037
refractive index (323.15 K, x1 = 0.5005): 1.46403 ± 0.00037
refractive index (323.15 K, x1 = 0.6): 1.46242 ± 0.00037
refractive index (323.15 K, x1 = 0.7002): 1.46091 ± 0.00037
refractive index (323.15 K, x1 = 0.8011): 1.45949 ± 0.00037
refractive index (323.15 K, x1 = 0.8998): 1.45821 ± 0.00037
refractive index (323.15 K, x1 = 1): 1.45708 ± 0.00037
refractive index (328.15 K, x1 = 0.1001): 1.47021 ± 0.00037
refractive index (328.15 K, x1 = 0.2012): 1.46788 ± 0.00037
refractive index (328.15 K, x1 = 0.2999): 1.46596 ± 0.00037
refractive index (328.15 K, x1 = 0.4003): 1.46404 ± 0.00037
refractive index (328.15 K, x1 = 0.5005): 1.46226 ± 0.00037
refractive index (328.15 K, x1 = 0.6): 1.46061 ± 0.00037
refractive index (328.15 K, x1 = 0.7002): 1.45905 ± 0.00037
refractive index (328.15 K, x1 = 0.8011): 1.45761 ± 0.00037
refractive index (328.15 K, x1 = 0.8998): 1.45636 ± 0.00037
refractive index (328.15 K, x1 = 1): 1.45513 ± 0.00037
